According to US4550186A, “Binuclear copper (II) carboxylates formed from amine-carboxyboranes” (Duke University, priority 1983, dated 1985):

Legend:
[1] = system: protein synthesis of Ehrlich ascites cells; experiment: In vivo leucine incorporation into protein; parameters: species or system mouse
Method: (§1) CF1 male mice (~30 g) were implanted with 2×10^6 Ehrlich ascites tumor cells, intraperitoneally on Day 0. Compound I was suspended by homogenation in 0.05% polysorbate.80-water and administered intraperitoneally at 10 and 20 mg/kg for 9 days to determine its effectiveness for inhibition of tumor growth. Mice were sacrificed on Day 10, and the ascites fluid was collected from the peritoneal cavity. The volume and ascrit (packed cell volume) were determined for each animal and the percent inhibition of tumor growth was calculated. For the metabolic studies, mice were treated on Days 8 and 9 with 10 mg/kg of Compound I, intraperitoneally. The animal was sacrificed on Day 10 and the ascites fluid harvested. […]
(§2) For in vivo studies, incorporation of thymidine into deoxyribonucleic acid was determined by the method of Chae et al [Proc. Am. […] The deoxyribonucleic acid was isolated and the tritium content was determined in a toluene based scintillation fluid. The deoxyribonucleic acid concentration was determined by the diphenylamine reaction using calf thymus deoxyribonucleic acid as a standard. Uridine incorporation into ribonucleic acid was determined using 10 μCi of 5,6-^3 H-uridine (22.4 Ci/mmol). […] Leucine incorporation into protein was determined by the method of Sartorelli [Biochem. Biophys. […] Protein content was determined by the Lowry procedure using bovine serum albumin as a standard.

[2] = system: ribonucleic acid synthesis of Ehrlich ascites cells; experiment: In vivo uridine incorporation into ribonucleic acid; parameters: species or system mouse
Method: as §1, §2

CF1 male mice [3] = experiment: Acute toxicity (LD50); format: in vivo, mouse; conditions: CF1 mice intraperitoneally, single dose, 7 days
Method: The acute toxicity (LD50 values) was determined in CF1 male mice by administering test drugs intraperitoneally from 5-50 mg/kg as a single dose. The number of deaths recorded over 7 days in the group was determined for each dosage.

CF1 male mice [4] = experiment: Antihyperlipidemic screen in normal mice; format: in vivo, mouse; conditions: for Serum Cholesterol / Serum Triglyceride: CF1 male mice I.P.
Method: Compounds to be tested were suspended in 1% carboxymethylcellulose-water and administered to CF1 male mice (~25 g) intraperitoneally for 16 days or Holtzman male rats (~350 g) orally by an intubation needle for 16 days. On days 9 or 16, blood was obtained by tail vein bleeding and the serum separated by centrifugation for 3 min. The serum cholesterol levels were determined by a modification of the Liebermann-Burchard reaction as described in Ness et al, Clin. Chim. Acta, 10, 229 (1964). Serum was also collected on day 16 and the triglyceride content was determined by a commercial kit, The Fisher Hycel Triglyceride Test Kit.
Data are expressed in the Table 2-7 as percent of control ± the standard deviation. The probable significant level (P) between each test group and the control group was determined by the Student's "t" test.

[5] = molecular target: T1, carbamyl phosphate synthetase (Mus musculus, UniProt B2RQC6); experiment: In vitro carbamyl phosphate synthetase activity; format: biochemical; conditions: 0.25 to 1.0 mM
T1 construct: CPSase II domain of CAD; ornithine transcarbamylase used as coupling enzyme
T1 sequence (B2RQC6 2-2225): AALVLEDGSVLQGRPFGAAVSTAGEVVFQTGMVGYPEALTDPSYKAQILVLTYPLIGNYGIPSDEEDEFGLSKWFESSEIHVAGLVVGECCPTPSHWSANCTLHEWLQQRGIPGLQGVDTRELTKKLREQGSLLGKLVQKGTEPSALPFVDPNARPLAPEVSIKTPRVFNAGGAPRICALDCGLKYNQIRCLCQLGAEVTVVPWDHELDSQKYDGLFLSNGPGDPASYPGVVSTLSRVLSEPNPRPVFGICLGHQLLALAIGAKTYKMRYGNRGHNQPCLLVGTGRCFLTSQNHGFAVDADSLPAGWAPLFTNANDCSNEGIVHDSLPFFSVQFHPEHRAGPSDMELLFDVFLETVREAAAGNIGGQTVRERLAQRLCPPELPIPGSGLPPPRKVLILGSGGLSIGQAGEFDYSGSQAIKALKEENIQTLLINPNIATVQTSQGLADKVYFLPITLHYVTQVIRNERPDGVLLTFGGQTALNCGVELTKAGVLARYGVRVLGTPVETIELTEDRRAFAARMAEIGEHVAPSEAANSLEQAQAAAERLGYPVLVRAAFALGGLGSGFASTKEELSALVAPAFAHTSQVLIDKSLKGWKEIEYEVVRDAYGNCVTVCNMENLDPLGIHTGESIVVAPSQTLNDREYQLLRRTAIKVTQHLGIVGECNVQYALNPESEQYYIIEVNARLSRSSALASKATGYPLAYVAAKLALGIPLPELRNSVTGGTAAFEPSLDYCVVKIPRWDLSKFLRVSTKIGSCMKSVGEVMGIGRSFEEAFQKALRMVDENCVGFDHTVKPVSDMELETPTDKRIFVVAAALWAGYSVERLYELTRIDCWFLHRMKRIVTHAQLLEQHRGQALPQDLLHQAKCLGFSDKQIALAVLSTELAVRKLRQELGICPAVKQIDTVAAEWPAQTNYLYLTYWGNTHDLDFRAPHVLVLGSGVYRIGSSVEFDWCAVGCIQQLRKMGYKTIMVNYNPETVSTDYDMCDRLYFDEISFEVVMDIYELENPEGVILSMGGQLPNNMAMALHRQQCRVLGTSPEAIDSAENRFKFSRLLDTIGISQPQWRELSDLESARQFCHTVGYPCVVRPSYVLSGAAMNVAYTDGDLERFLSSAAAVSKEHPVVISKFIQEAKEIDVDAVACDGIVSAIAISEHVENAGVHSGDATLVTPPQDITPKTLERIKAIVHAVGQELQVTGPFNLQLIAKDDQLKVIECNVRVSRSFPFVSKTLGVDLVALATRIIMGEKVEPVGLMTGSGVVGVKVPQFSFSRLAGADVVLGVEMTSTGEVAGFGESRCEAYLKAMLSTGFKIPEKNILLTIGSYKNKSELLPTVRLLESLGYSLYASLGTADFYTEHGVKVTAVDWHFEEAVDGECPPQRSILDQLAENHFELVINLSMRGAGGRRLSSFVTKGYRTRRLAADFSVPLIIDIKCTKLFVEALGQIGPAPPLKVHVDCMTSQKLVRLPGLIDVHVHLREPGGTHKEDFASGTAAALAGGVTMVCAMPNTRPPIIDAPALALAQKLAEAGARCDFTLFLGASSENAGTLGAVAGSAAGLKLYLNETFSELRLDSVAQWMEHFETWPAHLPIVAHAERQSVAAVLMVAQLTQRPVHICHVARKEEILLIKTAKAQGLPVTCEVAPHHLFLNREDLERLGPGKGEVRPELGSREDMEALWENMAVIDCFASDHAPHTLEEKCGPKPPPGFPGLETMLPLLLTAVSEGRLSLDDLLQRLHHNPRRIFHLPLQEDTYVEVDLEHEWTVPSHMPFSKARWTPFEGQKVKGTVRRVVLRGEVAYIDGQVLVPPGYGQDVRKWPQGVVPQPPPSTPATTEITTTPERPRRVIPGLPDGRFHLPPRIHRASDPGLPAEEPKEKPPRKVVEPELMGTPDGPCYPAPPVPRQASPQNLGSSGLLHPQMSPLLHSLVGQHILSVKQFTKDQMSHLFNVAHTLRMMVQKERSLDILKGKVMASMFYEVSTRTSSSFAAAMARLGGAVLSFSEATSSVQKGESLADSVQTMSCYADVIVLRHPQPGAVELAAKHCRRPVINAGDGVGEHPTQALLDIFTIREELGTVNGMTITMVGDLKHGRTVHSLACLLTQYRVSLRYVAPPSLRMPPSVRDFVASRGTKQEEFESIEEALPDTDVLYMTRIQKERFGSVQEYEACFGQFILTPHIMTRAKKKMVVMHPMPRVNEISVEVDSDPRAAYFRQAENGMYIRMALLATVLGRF
Method: as §1, with “intraperitoneally.” for “intraperitoneally. The animal was sacrificed on Day 10 and the ascites fluid harvested.”
Carbamyl phosphate synthetase activity was determined using the reaction medium of Kalman et al [Am. […] Citrulline formed from ornithine was measured at 490 nm by the method of Archibald [J. Biol. Chem., 156, 121 (1944)]. […] The ^14 CO2 generated in 15 min was trapped in 1M KOH and counted. Thymidylate synthetase activity was determined using a post-mitochondrial supernatant (9000 g×10 min) and 5 μCi of 5-^3 H-deoxyuridine monophosphate (14 Ci/mmol) according to the method of Kampf et al [ J. Med. Chem., 19, 903 (1976)]. ^14 C-Formate incorporation into purines was determined by the method of Spassova et al [Biochem. Pharmacol., 25, 923 (1976)] using 0.5 μCi of ^14 C-formic acid (52.0 mCi/mmol). […] The Rf value for xanthine monophosphate was scraped and counted. […]

[6] = 10 mg/kg/day I.P. on Days 8 and 9

{Cu[(CH3)3 N.BH2 CO2 ]2.(CH3)3 N.BH2 COOH} [Compound I]
3H-Leucine incorporation into protein [1, 6]: 48 ± 6 % Control | Leucine incorporation into protein inhibited ([1]; 10 day Ehrlich ascites cells): 52% | 3H-Uridine incorporation into ribonucleic acid [2, 6]: 116 ± 10 % Control | uridine incorporation into ribonucleic acid ([2]; 10 day Ehrlich ascites cells): unaffected | LD50 (CF1 male mice [3]): 39.2 mg/kg | Serum Cholesterol (CF1 male mice [4]; 2.5 mg/kg, Day 9): 61 ± 5 % Control | Serum Cholesterol (CF1 male mice [4]; 2.5 mg/kg, Day 16): 62 ± 6 % Control | Serum Triglyceride (CF1 male mice [4]; 2.5 mg/kg, Day 16): 50 ± 6 % Control | Serum Cholesterol (CF1 male mice [4]; 5.0 mg/kg, Day 9): 67 ± 6 % Control | Serum Cholesterol (CF1 male mice [4]; 5.0 mg/kg, Day 16): 63 ± 5 % Control | Serum Triglyceride (CF1 male mice [4]; 5.0 mg/kg, Day 16): 69 ± 6 % Control | Serum Cholesterol (CF1 male mice [4]; 10.0 mg/kg, Day 9): 71 ± 6 % Control | Serum Cholesterol (CF1 male mice [4]; 10.0 mg/kg, Day 16): 63 ± 5 % Control | Serum Triglyceride (CF1 male mice [4]; 10.0 mg/kg, Day 16): 47 ± 5 % Control | Serum Cholesterol (CF1 male mice [4]; 20.0 mg/kg, Day 9): 52 ± 5 % Control | Serum Cholesterol (CF1 male mice [4]; 20.0 mg/kg, Day 16): 53 ± 4 % Control | Serum triglyceride levels reduced (CF1 male mice [4]; mice, 2.5 mg/kg/day): greater than 50% | Serum triglyceride levels reduced (CF1 male mice [4]; mice, 10 mg/kg/day): greater than 50% | serum triglyceride reduction (CF1 male mice [4]; mice, 10 mg/kg/day): 53% | reduction of serum cholesterol (maximal effect) (CF1 male mice [4]; mice, 20 mg/kg/day): 47% | carbamyl phosphate synthetase inhibition [5]: not inhibited
